Results taken from ChEMBL document CHEMBL3044945, “Synthesis of 1,3,5-trisubstituted pyrazoline nucleus containing compounds and screening for antimicrobial activity” (2012).
≈ marks a conversion by molar mass, not a printed value.

What was measured:
Assay type in all cases: functional
Escherichia coli [1] = assay: Antibacterial activity against Escherichia coli MTCC 1573 at 500 ug/ml after 48 hr by cup-plate method; conditions: MTCC 1573, 48 h, read-out: DIZ
Aspergillus niger [2] = assay: Antifungal activity against Aspergillus niger MTCC 2546 at 100 ug/ml after 48 hr by cup-plate method; conditions: MTCC 2546, 48 h, read-out: DIZ
Bacillus pumilus [3] = assay: Antibacterial activity against Bacillus pumilus MTCC 1456 at 1000 ug/ml after 48 hr by cup-plate method; conditions: MTCC 1456, 48 h, read-out: DIZ
Escherichia coli [4] = assay: Antibacterial activity against Escherichia coli MTCC 1573 at 250 ug/ml after 48 hr by cup-plate method; conditions: MTCC 1573, 48 h, read-out: DIZ
Staphylococcus aureus [5] = assay: Antibacterial activity against Staphylococcus aureus MTCC 1430 at 1250 ug/ml after 48 hr by cup-plate method; conditions: MTCC 1430, 48 h, read-out: DIZ
Pseudomonas fluorescens [6] = assay: Antibacterial activity against Pseudomonas fluorescens MTCC 2421 after 24 to 48 hr by tube dilution method
Bacillus subtilis [7] = assay: Antibacterial activity against Bacillus subtilis MTCC 441 at 250 ug/ml after 48 hr by cup-plate method; conditions: MTCC 441, 48 h, read-out: DIZ
Bacillus pumilus [8] = assay: Antibacterial activity against Bacillus pumilus MTCC 1456 at 750 ug/ml after 48 hr by cup-plate method; conditions: MTCC 1456, 48 h, read-out: DIZ
Micrococcus luteus [9] = assay: Antibacterial activity against Micrococcus luteus MTCC 1538 after 24 to 48 hr by tube dilution method
Bacillus subtilis [10] = assay: Antibacterial activity against Bacillus subtilis MTCC 441 after 24 to 48 hr by tube dilution method
Pseudomonas aeruginosa = assay: Antibacterial activity against Pseudomonas aeruginosa MTCC 424 at 250 ug/ml after 48 hr by cup-plate method; conditions: MTCC 424, 48 h, read-out: DIZ
Pseudomonas fluorescens [11] = assay: Antibacterial activity against Pseudomonas fluorescens MTCC 2421 at 250 ug/ml after 48 hr by cup-plate method; conditions: MTCC 2421, 48 h, read-out: DIZ
Aspergillus niger [12] = assay: Antifungal activity against Aspergillus niger MTCC 2546 at 250 ug/ml after 48 hr by cup-plate method; conditions: MTCC 2546, 48 h, read-out: DIZ
Aspergillus niger [13] = assay: Antifungal activity against Aspergillus niger MTCC 2546 after 24 to 48 hr by tube dilution method
Penicillium chrysogenum = assay: Antifungal activity against Penicillium chrysogenum MTCC 161 after 24 to 48 hr by tube dilution method
Staphylococcus aureus [14] = assay: Antibacterial activity against Staphylococcus aureus MTCC 1430 at 100 ug/ml after 48 hr by cup-plate method; conditions: MTCC 1430, 48 h, read-out: DIZ
Micrococcus luteus [15] = assay: Antibacterial activity against Micrococcus luteus MTCC 1538 at 100 ug/ml after 48 hr by cup-plate method; conditions: MTCC 1538, 48 h, read-out: DIZ

Question: How did the zone of inhibition at 500 µg/mL (Escherichia coli [1]) turn out when O=[N+]([O-])c1ccc(C2CC(c3cccc4ccccc34)=NN2c2ccccc2[N+](=O)[O-])cc1 (configuration not stated) was run?
Answer: 11 mm

Question: What about the zone of inhibition at 100 µg/mL (Aspergillus niger [2]) of the same compound?
Answer: 10 mm

Question: And the zone of inhibition at 1000 µg/mL (Bacillus pumilus [3])?
Answer: 23 mm

Question: And the zone of inhibition at 250 µg/mL (Escherichia coli [4])?
Answer: 10 mm

Question: What about the zone of inhibition at 1250 µg/mL (Staphylococcus aureus [5]) of the same compound?
Answer: 15 mm

Question: And the MIC (Pseudomonas fluorescens [6])?
Answer: 30 µg/mL (≈ 68.4 µM)

Question: What about the zone of inhibition at 250 µg/mL (Bacillus subtilis [7]) of the same compound?
Answer: 13 mm

Question: What about the zone of inhibition at 750 µg/mL (Bacillus pumilus [8]) of the same compound?
Answer: 18 mm

Question: What about the MIC (Micrococcus luteus [9]) of the same compound?
Answer: 30 µg/mL (≈ 68.4 µM)

Question: What about the MIC (Bacillus subtilis [10]) of the same compound?
Answer: 19 µg/mL (≈ 43.3 µM)

Question: What about the zone of inhibition at 250 µg/mL (Pseudomonas aeruginosa) of the same compound?
Answer: 14 mm

Question: What about the zone of inhibition at 250 µg/mL (Pseudomonas fluorescens [11]) of the same compound?
Answer: 11 mm

Question: What about the zone of inhibition at 250 µg/mL (Aspergillus niger [12]) of the same compound?
Answer: 11 mm

Question: What about the MIC (Aspergillus niger [13]) of the same compound?
Answer: 30 µg/mL (≈ 68.4 µM)

Question: What about the MIC (Penicillium chrysogenum) of the same compound?
Answer: 30 µg/mL (≈ 68.4 µM)

Question: What does the source list for O=[N+]([O-])c1ccc(C2CC(c3cccc4ccccc34)=NN2c2ccc([N+](=O)[O-])cc2)cc1 (configuration not stated)?
Answer: zone of inhibition at 500 µg/mL (Escherichia coli [1]): 12 mm; zone of inhibition at 100 µg/mL (Aspergillus niger [2]): 12 mm; zone of inhibition at 1000 µg/mL (Bacillus pumilus [3]): 18 mm; zone of inhibition at 250 µg/mL (Escherichia coli [4]): 11 mm; zone of inhibition at 1250 µg/mL (Staphylococcus aureus [5]): 13 mm; MIC (Pseudomonas fluorescens [6]): 30 µg/mL (≈ 68.4 µM); zone of inhibition at 250 µg/mL (Bacillus subtilis [7]): 12 mm; zone of inhibition at 750 µg/mL (Bacillus pumilus [8]): 15 mm; MIC (Micrococcus luteus [9]): 150 µg/mL (≈ 342 µM); MIC (Bacillus subtilis [10]): 50 µg/mL (≈ 114 µM); zone of inhibition at 250 µg/mL (Pseudomonas aeruginosa): 10 mm; zone of inhibition at 250 µg/mL (Pseudomonas fluorescens [11]): 10 mm; zone of inhibition at 250 µg/mL (Aspergillus niger [12]): 13 mm; MIC (Aspergillus niger [13]): 30 µg/mL (≈ 68.4 µM); MIC (Penicillium chrysogenum): 50 µg/mL (≈ 114 µM)

Question: For NC(=S)N1N=C(c2cccc3ccccc23)CC1c1ccc([N+](=O)[O-])cc1 (configuration not stated), which zone of inhibition at 500 µg/mL (Escherichia coli [1]) is on record?
Answer: 11 mm

Question: What about the zone of inhibition at 100 µg/mL (Aspergillus niger [2]) of the same compound?
Answer: 10 mm

Question: And the zone of inhibition at 1000 µg/mL (Bacillus pumilus [3])?
Answer: 19 mm

Question: What about the zone of inhibition at 250 µg/mL (Escherichia coli [4]) of the same compound?
Answer: 9 mm

Question: And the zone of inhibition at 1250 µg/mL (Staphylococcus aureus [5])?
Answer: 14 mm

Question: And the MIC (Pseudomonas fluorescens [6])?
Answer: 30 µg/mL (≈ 79.7 µM)

Question: And the zone of inhibition at 250 µg/mL (Bacillus subtilis [7])?
Answer: 11 mm

Question: And the zone of inhibition at 750 µg/mL (Bacillus pumilus [8])?
Answer: 18 mm

Question: What about the MIC (Micrococcus luteus [9]) of the same compound?
Answer: 150 µg/mL (≈ 398 µM)

Question: And the MIC (Bacillus subtilis [10])?
Answer: 30 µg/mL (≈ 79.7 µM)

Question: What about the zone of inhibition at 250 µg/mL (Pseudomonas aeruginosa) of the same compound?
Answer: 11 mm

Question: What about the zone of inhibition at 250 µg/mL (Pseudomonas fluorescens [11]) of the same compound?
Answer: 10 mm

Question: And the zone of inhibition at 250 µg/mL (Aspergillus niger [12])?
Answer: 11 mm

Question: And the MIC (Aspergillus niger [13])?
Answer: 30 µg/mL (≈ 79.7 µM)

Question: And the MIC (Penicillium chrysogenum)?
Answer: 30 µg/mL (≈ 79.7 µM)

Question: Which zone of inhibition at 500 µg/mL (Escherichia coli [1]) does the source give for O=[N+]([O-])c1ccc(C2CC(c3cccc4ccccc34)=NN2c2ccccc2)cc1 (configuration not stated) here?
Answer: 11 mm

Question: And the zone of inhibition at 100 µg/mL (Aspergillus niger [2])?
Answer: 10 mm

Question: And the zone of inhibition at 1000 µg/mL (Bacillus pumilus [3])?
Answer: 16 mm

Question: And the zone of inhibition at 250 µg/mL (Escherichia coli [4])?
Answer: 10 mm

Question: What about the zone of inhibition at 1250 µg/mL (Staphylococcus aureus [5]) of the same compound?
Answer: 18 mm

Question: What about the MIC (Pseudomonas fluorescens [6]) of the same compound?
Answer: 30 µg/mL (≈ 76.2 µM)

Question: What about the zone of inhibition at 250 µg/mL (Bacillus subtilis [7]) of the same compound?
Answer: 14 mm

Question: And the zone of inhibition at 750 µg/mL (Bacillus pumilus [8])?
Answer: 14 mm

Question: And the MIC (Micrococcus luteus [9])?
Answer: 200 µg/mL (≈ 508 µM)

Question: And the MIC (Bacillus subtilis [10])?
Answer: 50 µg/mL (≈ 127 µM)

Question: What about the zone of inhibition at 250 µg/mL (Pseudomonas aeruginosa) of the same compound?
Answer: 10 mm

Question: What about the zone of inhibition at 250 µg/mL (Pseudomonas fluorescens [11]) of the same compound?
Answer: 9 mm

Question: And the zone of inhibition at 250 µg/mL (Aspergillus niger [12])?
Answer: 12 mm

Question: What about the MIC (Aspergillus niger [13]) of the same compound?
Answer: 30 µg/mL (≈ 76.2 µM)

Question: And the MIC (Penicillium chrysogenum)?
Answer: 30 µg/mL (≈ 76.2 µM)

Question: Which zone of inhibition at 100 µg/mL (Staphylococcus aureus [14]) does the source give for O=[N+]([O-])c1ccc(C2CC(c3cccc4ccccc34)=NN2)cc1 (configuration not stated) here?
Answer: 9 mm

Question: And the zone of inhibition at 500 µg/mL (Escherichia coli [1])?
Answer: 11 mm

Question: What about the zone of inhibition at 100 µg/mL (Aspergillus niger [2]) of the same compound?
Answer: 8 mm

Question: And the zone of inhibition at 1000 µg/mL (Bacillus pumilus [3])?
Answer: 17 mm

Question: And the zone of inhibition at 250 µg/mL (Escherichia coli [4])?
Answer: 10 mm

Question: What about the zone of inhibition at 1250 µg/mL (Staphylococcus aureus [5]) of the same compound?
Answer: 16 mm

Question: And the MIC (Pseudomonas fluorescens [6])?
Answer: 150 µg/mL (≈ 473 µM)

Question: What about the zone of inhibition at 250 µg/mL (Bacillus subtilis [7]) of the same compound?
Answer: 12 mm

Question: And the zone of inhibition at 750 µg/mL (Bacillus pumilus [8])?
Answer: 14 mm

Question: And the MIC (Micrococcus luteus [9])?
Answer: 30 µg/mL (≈ 94.5 µM)

Question: What about the zone of inhibition at 100 µg/mL (Micrococcus luteus [15]) of the same compound?
Answer: 9 mm

Question: And the MIC (Bacillus subtilis [10])?
Answer: 30 µg/mL (≈ 94.5 µM)

Question: And the zone of inhibition at 250 µg/mL (Pseudomonas aeruginosa)?
Answer: 10 mm

Question: And the zone of inhibition at 250 µg/mL (Pseudomonas fluorescens [11])?
Answer: 9 mm

Question: And the zone of inhibition at 250 µg/mL (Aspergillus niger [12])?
Answer: 9 mm

Question: And the MIC (Aspergillus niger [13])?
Answer: 50 µg/mL (≈ 158 µM)

Question: And the MIC (Penicillium chrysogenum)?
Answer: 50 µg/mL (≈ 158 µM)
